# Peptide text beside a SMILES is read from it. * marks the point of attachment. Cbz = O=C(OCc1ccccc1)*
# Experiments:
# [1] = system: Wnt3A stimulated STF activity; experiment: Wnt-responsive Super-Topflash (STF) luciferase reporter assay in HEK293 cells; format: cell-based
# Excerpt: The corresponding reporter activity for each compound dilution was normalized to DMSO and expressed as a percentage of the reporter activity in DMSO.
# To identify small molecule inhibitors of the Wnt/β-catenin pathway, a high-throughput compound screen was employed, with over one million compounds, using a Wnt-responsive Super-Topflash (STF) luciferase reporter assay in HEK293 cells.
# DLD-1 cells = experiment: Colony formation assay, DLD-1 cells; format: cell-based; conditions: low serum growth conditions
# Method: FIG. 6A. […] DLD1 and RKO cells were seeded at […] in a 6-well plate in medium containing 0.5% serum and indicated compounds, and replenished with fresh medium every two days. Colonies were visualized by crystal violet staining.
# FIG. 6B. […] DLD1 cells were transfected with siRNAs against Axin1 and Axin2, and seeded at 1000 cells/well in a 6-well plate. The compound treatment was carried out as described in 6A.
# (§1) The colony formation assay was performed as follows: DLD1 and RKO cells were seeded in low serum growth medium (0.5% FBS) at 500 and 1000 cells/well, respectively, into […]. Sixteen hours after plating, compounds were added at the indicated concentrations. Medium was replenished every two days until colony formation was observed. Colonies were stained by a solution of 2 mg/ml crystal violet in buffered formalin and imaged on a Molecular Imager ChemiDoc XRS System (BioRad).
# TNKS = conditions: doses 1 nM to 100 μM
# [2] = target: C-terminal PARP domain of TNKS2 (GST-TNKS2 PARP) (Homo sapiens, UniProt Q9H2K2); experiment: In vitro auto-PARsylation assay of TNKS2
# C-terminal PARP domain of TNKS2 (GST-TNKS2 PARP), sequence (Q9H2K2 934-1166): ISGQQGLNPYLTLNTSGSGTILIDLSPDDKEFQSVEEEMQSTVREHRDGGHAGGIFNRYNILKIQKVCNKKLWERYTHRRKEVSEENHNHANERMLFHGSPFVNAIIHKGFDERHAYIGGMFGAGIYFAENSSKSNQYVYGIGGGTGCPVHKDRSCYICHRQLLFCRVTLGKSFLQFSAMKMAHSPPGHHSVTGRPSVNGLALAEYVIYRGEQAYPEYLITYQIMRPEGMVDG
# Excerpt: Tankyrase, utilizing NAD^+, catalyzes poly(ADP-ribosyl)ation of itself (autoparsylation) or targeted proteins (substrate parsylations). In each reaction turnover, the enzyme consumes one unit of NAD^+, add one unit of ADP-ribose to the polymer chain, releases one unit of nicotinamide. The autoparsylation activity assay is designed to monitor the nicotinamide formation and the reduction in the nicotinamide formation in the presence of tankyrase small molecule inhibitors. The quantification of nicotinamide is carried out by liquid chromatography/mass spectrometry (LC/MS).
# Prior to LC/MS analysis, the protein in the reaction mixture was removed by precipitation/centrifugation method after added two aliquots of acetonitrile.
# PARP1/2 = experiment: Dose response compound competition experiment (immunoblot); conditions: doses 1 nM to 100 μM
# Axin1 and Axin2 [3] = experiment: Axin ubiquitination in SW480 cells (immunoprecipitation/immunoblot); format: cell-based, human
# Excerpt: The position that Axin1 migrates is labeled with an arrow.
# FIG. 5E. […] (IP: immunoprecipitation, TCL: total cell lysates)
# CRE luciferase reporter = CRE luciferase reporter in HEK293 cells (Forskolin activated); format: cell-based
# [4] = system: NF-κB luciferase reporter; experiment: NF-κB luciferase reporter in HEK293 cells (TNFα activated); format: cell-based
# TGFβ luciferase reporter = experiment: TGFβ (CAGA12) luciferase reporter in HEK293 cells; format: cell-based
# β-catenin [5] = experiment: Immunoblot of cytosolic β-catenin in Wnt3A stimulated HEK293 cells; format: cell-based
# Method: Cell lysates were fractionated and immunoblotted for cytosolic β-catenin.
# To generate cytosolic lysates, cells were scraped into hypotonic buffer (10 mM Tris-HCl pH7.5, 10 mM KCl), and cell lysates were cleared by centrifugation after four freeze-thaw cycles. In all above experiments, 1× protease inhibitor cocktail (Sigma) and 1× phosphatase inhibitor cocktail (Upstate) were added into lysis buffers.
# β-catenin [6] = experiment: Immunoblot of β-catenin and phospho-β-catenin in SW480 cells; format: cell-based, human
# Method: To generate cytosolic lysates, cells were scraped into hypotonic buffer (10 mM Tris-HCl pH7.5, 10 mM KCl), and cell lysates were cleared by centrifugation after four freeze-thaw cycles. In all above experiments, 1× protease inhibitor cocktail (Sigma) and 1× phosphatase inhibitor cocktail (Upstate) were added into lysis buffers. Commercial antibodies used in this study include goat anti-Axin1 antibodies (R&D Systems), rabbit anti-Axin2 antibodies and rabbit anti-phospho-β-catenin (pSer33/37/Thr41) antibodies (Cell Signaling Technology), mouse anti-TNKS antibodies (Abeam), mouse anti-HA (HA.11) antibodies (Covance), mouse anti-β-catenin antibodies, rabbit anti-Poly(ADP-ribose) antibodies, and rabbit anti-PARP1 antibodies (BD Pharmingen), mouse anti-ubiquitin antibody (MBL), rabbit anti-GFP antibodies (Clontech), mouse anti-tubulin and mouse anti-Flag (M2) antibodies (Sigma).
# Axin1 and Axin2 [7] = experiment: Immunoblot of Axin protein levels after compound treatment; format: cell-based, human; conditions: after XAV939 treatment
# PARP2 = PARP2 (Homo sapiens, UniProt Q9UGN5); experiment: iTRAQ quantitative chemical proteomics competition, HEK293 cell lysates; format: binding; conditions: 20 μM soluble compound, relative to DMSO
# PARP2, sequence (Q9UGN5 whole entry, the tested form may be a part): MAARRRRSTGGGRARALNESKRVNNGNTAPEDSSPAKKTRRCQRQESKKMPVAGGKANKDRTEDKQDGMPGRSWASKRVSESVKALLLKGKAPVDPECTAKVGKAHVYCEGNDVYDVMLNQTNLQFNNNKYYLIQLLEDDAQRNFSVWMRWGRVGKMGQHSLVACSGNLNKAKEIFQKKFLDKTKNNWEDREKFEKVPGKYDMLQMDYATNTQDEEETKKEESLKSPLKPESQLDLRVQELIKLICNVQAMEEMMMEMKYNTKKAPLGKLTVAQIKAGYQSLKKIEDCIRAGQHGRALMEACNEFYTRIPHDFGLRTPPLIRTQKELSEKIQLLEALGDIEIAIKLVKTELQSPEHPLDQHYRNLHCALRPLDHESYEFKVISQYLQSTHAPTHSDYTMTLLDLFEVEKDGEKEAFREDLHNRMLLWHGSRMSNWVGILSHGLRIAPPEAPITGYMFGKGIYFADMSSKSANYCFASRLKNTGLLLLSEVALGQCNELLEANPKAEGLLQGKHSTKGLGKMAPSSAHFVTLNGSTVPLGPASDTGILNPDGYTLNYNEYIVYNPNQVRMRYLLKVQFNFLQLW
# Method: By using iTRAQ, a chemical peptide labeling technique, the 3 samples were multiplexed and quantified binding displacement (% competition) relative to the vehicle (DMSO) by LC-MS/MS analysis.
# Sequencing was performed by liquid chromatography-tandem mass spectrometry on a LTQ-Orbitrap mass spectrometer (Thermo-Finnigan). Tandem mass spectra were generated using pulsed-Q dissociation, enabling detection of iTRAQ reporter ions. Peptide mass and fragmentation data were used to query an in-house curated version of the IPI database using Mascot (Matrix Science). Protein identifications were validated using a decoy database. iTRAQ reporter ion-based quantification was performed with in-house developed software.
# Lysate was pre-cleared by centrifugation and protein concentration measured by Bradford assay. […] Then 100 μl of negative control-matrix was added and incubation resumed at 4° C. for another 60 min. After centrifugation, beads were transferred into a column (MoBiTech) and washed.
# GFP-Axin1 = GFP-Axin1 fusion construct protein levels in SW480 cell lines; format: cell-based, mouse
# Excerpt: FIG. 4E. The TNKS binding domain is required for XAV939-induced Axin1 protein accumulation. […] Total cell lysates were harvested and analyzed by immunoblotting.
# (§2) The SuperTopFlash (STF) methods described in at least Example 1 employed plasmids manufactured as follows: SuperTopflash reporter was generated by inserting twelve TCF binding sites into pTA-Luc (Clontech). Mouse Axin1 and its mutants were fused with either GFP or FLAG epitope at the amino termini and cloned into a retroviral vector under the control of the metallothionein promoter. Human TNKS1/2 and their mutants were tagged with FLAG epitope fused at the amino termini and cloned into a mammalian expression vector under the control of the cytomegalovirus (CMV) promoter. Drosophila Axin fused with three HA epitopes at the carboxyl terminus was cloned in a Drosophila expression vector under the control of the metallothionein promoter. A sequence encoding the amino terminal fragment of mouse Axin1 (a.a. 1-87) was cloned in a Tet-regulated expression vector pcDNA4-TO (Invitrogen). Several proteins were cloned using Gateway technology (Invitrogen) into the expression vector pDEST15 (Invitrogen, Carlsbad, Calif.): TNKS1-P(1088-1327), TNKS2-P(934-1166), TNKS2-SP (872-1166), PARP1-P (662-1014) and PARP16-P (93-273).
# The functional consequences of disrupting the physical interaction between Axin and TNKS were assessed. […]. […] […].
# GFP-Axin = experiment: PARsylation of exogenously expressed GFP-Axin in cells; format: cell-based, mouse; conditions: anti-PAR antibody
# Method: FIG. 5D. In vivo PARsylation of Axin1. SW480 cells stably expressing GFP-Axin1 under control of the metallothionein promoter were incubated with Cu^2+ overnight to induce expression of GFP-Axin1. […] Lysates were harvested with RIPA buffer containing PARG inhibitor ADP-HPD (5 μM) and PARP1 inhibitor PJ34 (80 μM), immunoprecipitated with GFP antibody and analyzed by immunoblotting.
# as §2, with “Several proteins were cloned using Gateway technology (Invitrogen) into the expression vector pDEST15 (Invitrogen, Carlsbad, Calif.): TNKS1-P(1088-1327), TNKS2-P(934-1166), TNKS2-SP (872-1166), PARP1-P (662-1014) and PARP16-P (93-273).” left out
# RKO cells = experiment: Colony formation assay, RKO cells; format: cell-based; conditions: low serum growth conditions, β-catenin independent cells
# Method: […]. DLD1 and RKO cells were seeded at 500 cells/well in a 6-well plate in medium containing 0.5% serum and indicated compounds, and replenished with fresh medium every two days. Colonies were visualized by crystal violet staining.
# as §1
# [8] = system: cell lines used in this study; experiment: Mitotic arrest phenotype in cell lines; format: cell-based; conditions: low or high serum conditions
# Excerpt: TNKS1/TNKS2 have been described to regulate mitotic progression, telomere maintenance, and GLUT4 transport. (Canudas, S., et al. (2007) Embo J 26, 4867-78 (2007); Seimiya, H., et al. (2002) J Biol Chem 277, 14116-26) In particular, TNKS1 was proposed to be required for the resolution of sister telomere association or assembly of bipolar spindles, and TNKS1 knockdown was reported to cause strong mitotic arrest.
# Axin-GSK3β complex = Axin-GSK3β complex formation
# Method: Total cell lysates were prepared by cell lysis in RIPA buffer (50 mM Tris-HCl, pH 7.4, 150 mM NaCl, 1% NP-40, 0.5% sodium deoxycholate, 0.1% SDS, 1 mM EDTA). Equal amount of proteins were resolved by SDS-PAGE, transferred to nitrocellulose membranes and probed with indicated antibodies. For co-immunoprecipitation experiments, cells were lysed in EBC buffer (50 mM Tris-HCl, pH 7.4, 150 mM NaCl, 0.5% NP-40, 1 mM EDTA), cleared cell lysates were incubated with indicated antibodies and Protein G-sepharose beads overnight at 4° C. The beads were washed five times with lysis buffer. The bound proteins were dissolved in SDS sample buffer, resolved by SDS-PAGE, and blotted with indicated antibodies.
# [9] = system: Axin1 and Axin2 transcript; experiment: Axin transcript levels (quantitative RT-PCR); conditions: after compound treatment
# Method: Total RNA from compound or siRNA treated cells was extracted using the RNeasy Mini Kit (Qiagen) and reverse transcribed with Taqman Reverse Transcription Reagents (Applied Biosystems) according to the manufacturer's instructions. Transcript levels were assessed using the ABI PRISM 7900HT Sequence Detection System. […] The thermocycling conditions utilized were 2 min at 50° C., 10 min at 95° C., followed by 40 cycles of 15 sec at 95° C. and 1 min at 60° C. All experiments were performed in triplicate. Gene expression analysis was performed using the comparative CT method with the housekeeping gene, GUSB, for normalization.
# Axin2 = experiment: PARsylation of endogenous Axin2 in compound wash-off experiment; conditions: MG132 plus XAV939
# Method: Post-translational modification of Axin2 in a compound wash-off experiment. […] Cell lysates were harvested with RIPA buffer, immunoprecipitated with anti-Axin2 antibody, and analyzed by immunoblotting.
# Total cell lysates were prepared by cell lysis in RIPA buffer (50 mM Tris-HCl, pH 7.4, 150 mM NaCl, 1% NP-40, 0.5% sodium deoxycholate, 0.1% SDS, 1 mM EDTA). Equal amount of proteins were resolved by SDS-PAGE, transferred to nitrocellulose membranes and probed with indicated antibodies. For co-immunoprecipitation experiments, cells were lysed in EBC buffer (50 mM Tris-HCl, pH 7.4, 150 mM NaCl, 0.5% NP-40, 1 mM EDTA), cleared cell lysates were incubated with indicated antibodies and Protein G-sepharose beads overnight at 4° C. The beads were washed five times with lysis buffer. The bound proteins were dissolved in SDS sample buffer, resolved by SDS-PAGE, and blotted with indicated antibodies. To detect protein ubiquitination and PARsylation in vivo, cells were lysed with RIPA buffer supplemented with 5 mM NEM and 5 μM ADP-HPD to block the activities of Deubiquitinase and PARG, and followed by immunoprecipitation with indicated antibodies.
# [10] = wash-off experiment, MG132 alone
compound,measurement,setting,value
CC(=O)N1CCc2nc(-c3ccc(C(F)(F)F)cc3)[nH]c(=O)c2C1 [LDW643],Wnt3A stimulated STF activity,[1],no activity
same,colony formation of DLD-1 cells,DLD-1 cells,did not affect
same,"activity in compound competition, TNKS binding",TNKS,no activity
same,auto-PARsylation of GST-TNKS2 PARP,[2],not affected
same,"activity in compound competition, PARP1/2 binding",PARP1/2,no activity
CC(C)C[C@@H](C=O)NC(=O)[C@H](CC(C)C)NC(=O)[C@H](CC(C)C)NC(=O)OCc1ccccc1 [MG132] (Cbz-Leu-Leu-Leu-aldehyde),poly-ubiquitination of Axin1,Axin1 and Axin2 [3]; MG132 alone,increased significantly
same,Axin2 degradation after XAV939 wash-off,Axin1 and Axin2 [3]; [10],blocked
same,Axin2 poly-ubiquitination after XAV939 wash-off,Axin1 and Axin2 [3]; [10],strongly increased
Oc1nc(-c2ccc(C(F)(F)F)cc2)nc2c1CSCC2 [XAV939],effect on CRE luciferase reporter,CRE luciferase reporter,did not affect
same,effect on NF-κB luciferase reporter,[4],did not affect
same,effect on TGFβ luciferase reporter,TGFβ luciferase reporter,did not affect
same,Wnt3A-induced accumulation of β-catenin,β-catenin [5],block
same,β-catenin abundance,β-catenin [6],decreased
same,β-catenin phosphorylation (S33/S37/T41),β-catenin [6],significantly increased
same,protein levels of Axin1 and Axin2,Axin1 and Axin2 [7],strongly increased
same,binding displacement (% competition) PARP2,PARP2,88%
same,GFP-Axin1Δ19-30 protein levels,GFP-Axin1; cells expressing GFP-Axin1Δ19-30 (TBD deleted),did not further respond
same,wild-type GFP-Axin1 protein levels,GFP-Axin1; cells expressing wild-type GFP-Axin1,strongly increased
same,Axin1 and Axin2 poly-ubiquitination,Axin1 and Axin2 [3]; co-treatment of XAV939 with MG132,significantly diminished
same,ubiquitination of Axin2,"Axin1 and Axin2 [3]; wash-off experiment, co-treatment with XAV939 and MG132",completely blocked
same,PARsylation signal of GFP-Axin in cells,GFP-Axin,strongly reduced
same,colony formation of DLD-1 cells,DLD-1 cells,significantly inhibited
same,colony formation in RKO cells,RKO cells,did not affect
same,mitotic arrest phenotype,[8],did not result in any overt mitotic arrest phenotype
same,Axin-GSK3β complex formation,Axin-GSK3β complex,strong increase
same,transcript levels of Axin1 and Axin2,[9],unaffected
same,anti-PAR antibody reactive signal co-migrating with Axin2,Axin2,disappeared

# From patent publication US20100267626A1, “METHODS AND COMPOSITIONS FOR MEASURING WNT ACTIVATION AND FOR TREATING WNT-RELATED CANCERS” (Novartis AG, priority 2007, published 2010)
